Source: US12497359B2, “Acrylamide derivatives” (NRG Therapeutics Ltd, priority 2020, dated 2025)
≈ marks a conversion by molar mass, not a printed value. Where a name gives a salt, the structure may show the parent alone.

Tests used:
mPTP = mPTP activity assay in isolated rat liver mitochondria (Ca2+ retention, Fluo5N, FLIPR); type: biochemical; settings: isolated rat liver mitochondria; average value from multiple experiments (n ≥ 2)
Description: Pharmacological inhibition or modulation of the mPTP can be measured in well characterised ‘Ca^2+ retention’ assays performed in isolated mitochondria. In vitro, isolated mitochondria rapidly sequester exogenous Ca^2+ until the intramitochondrial Ca^2+ concentration reaches the threshold for mPTP activation. Once the pore is activated, mitochondrial integrity is compromised and the stored Ca^2+ is released. The distribution of Ca^2+ between extra- and intra-mitochondrial compartments can be measured in real time with the use of membrane-impermeant Ca^2+ sensitive fluorescent dyes. Depending on the configuration of the assay, inhibition or modulation of the mPTP either delays the opening of the pore or increases the concentration of Ca^2+ required to induce mPTP opening.
mPTP activity was measured in mitochondria freshly isolated from female Sprague Dawley (250 to 300 gram) rat livers using the following method. Cervical dislocation was performed on the rat. The liver was then perfused in-situ with ˜40 ml cold Dulbecco's Phosphate Buffered Saline (DPBS) prior to dissection and transferred into 30 ml Isolation Buffer (250 mM Sucrose, 10 mM KCl, 1 mM EGTA, 1 mM EDTA, 25 mM HEPES, adjusted to pH 7.5 with 1 M NaOH). Each lobe of the liver was then removed from the buffer, minced using tweezers and a scalpel into ˜5 mm pieces then transferred into a 50 ml Potterton dounce homogenization tube on ice containing 30 ml ice-cold centrifugation buffer (300 mM Trehalose, 25 mM HEPES, 1 mM EGTA, 1 mM EDTA, 10 mM KCl, adjusted to pH 7.5 with 1 M NaOH and supplemented with 0.1% bovine serum albumin (BSA) and complete protease inhibitor cocktail (one tablet of inhibitor per 50 mls of buffer). Homogenisation was carried out using a teflon pestle at 1800 rpm. The slurry was centrifuged at 800 g for 10 min at 4° C., then the supernatant centrifuged at 10,000 g for 10 min. The pellet was washed once with FLIPR assay buffer (75 mM Mannitol, 25 mM Sucrose, 5 mM Potassium Phosphate Monobasic, 20 mM Tris base, 100 mM KCl, 0.1% BSA adjusted to pH 7.4 with 5 M HCl) centrifuged again, then resuspended in FLIPR assay buffer to a concentration of 8.8 mg/ml protein.
Test compounds (10 mM stock in DMSO) were serially diluted in DMSO in half log steps to generate 10 test concentrations (final concentrations in assay 30 μM to 1 nM). An intermediate dilution of 5 μl DMSO samples into 247 μl FLIPR assay buffer was carried out prior to transfer of 5 μl into duplicate wells of a 384 well polypropylene assay plate. Control wells were 0.5% (v/v) DMSO and 5 μM cyclosporin A.
A stock mitochondria/Fluo5N assay solution was prepared in 5.6 ml FLIPR assay buffer (at RT) supplemented with succinate disodium salt (10 mM), rotenone (1 μM), Fluo5N pentapotassium salt (2 μM) and 1 ml mitochondria suspension, then transferred (15 μl) into the assay plate containing test compounds and incubated for 10 min at RT. Assay plates were then transferred to a FLIPR Tetra plate reader (Molecular Devices). Dye fluorescence was then measured every 3 sec for a total of 10 min. After 12 sec, a 2.5 μl bolus of CaCl2 (75 μM) was added from a source plate containing 675 μM CaCl2 in FLIPR assay buffer. IC50 values for test compounds were calculated using the fluorescence value collected at the 10 min timepoint with % inhibition calculated using the DMSO control and cyclosporin A values as […] respectively.

[1] = Hepatocyte clearance assay, rat; type: in vitro ADME; settings: cryopreserved primary rat hepatocytes, average value from two experiments, read-out: Rat heps intrinsic clearance (CLint)
Description: In vitro clearance studies were performed in primary rat and human hepatocytes (BioIVT). Vials of cryopreserved rat or human hepatocytes were thawed in a 37° C. water bath for 2 min. Cells were transferred into thawing medium (Williams' Medium E containing 30% Percoll, 1× GlutaMAX-1, 15 mM HEPES, 5% fetal bovine serum (FBS), 4 μg/ml insulin, 1 μM dexamethasone), centrifuged at 100 g for 10 min then resuspended in culture medium (Leibovitz's L-15 Medium) at a concentration of 0.5×10^6 viable cells/mL (number of viable cells assessed using AO/PI staining). Hepatocytes (198 μL) were transferred into wells of a 96-well non-coated plate and placed in a 37° C. incubator for 10 min. Test compound solutions were prepared from 10 mM stocks in DMSO, diluted to 100 μM in 50% (v/v in water) acetonitrile. Test compound samples (2 μl) were added to each well of hepatocytes and incubated at 37° C. Samples (25 μl) were collected at t=0, 15, 30, […] and 120 min, mixed with 6 volumes (150 μl) of acetonitrile containing internal standard (100 nM alprazolam, 200 nM caffeine and 100 nM tolbutamide), vortexed for 5 min and centrifuged for 45 min at 3220 g. An aliquot of supernatant (100 μL) was diluted with 100 μL ultra-pure water, and the mixture was used for LC/MS/MS analysis. All incubations were performed in duplicate. Peak areas were determined from extracted ion chromatograms. The slope value, k, was determined by linear regression of the natural logarithm of the remaining percentage of the parent drug vs. incubation time curve. The in vitro half-life (in vitro t1/2) was determined from the slope value: in vitro t1/2=0.693/k. Conversion of the in vitro t1/2 (in min) into the in vitro intrinsic clearance (in vitro CLint, in μL/min/1×10^6 cells) was done using the following equation (mean of duplicate determinations): • in vitro CLint=kV/N • V=incubation volume (0.2 mL) • N=number of hepatocytes per well (0.1×10^6 cells). Microsomal Clearance Assay

PBS solubility = type: physicochemical; settings: aqueous buffer, kinetic from dmso stock; PBS pH 7.4, 2 hr at 25° C.
Description: Test compounds were prepared as 10 mM stocks in DMSO and 15 μl samples transferred in duplicate into 1.5 mL glass flat bottom vials (BioTech Solutions). Fasted state simulated intestinal fluid (FaSSIF) or PBS (pH 7.4) was added to each vial to final volume of 500 μl. One PTFE encapsulated stir stick (V&P Scientific) was placed in each vial before sealing with PTFE/SIL plugs (BioTech Solutions). Vials were shaken at 1100 rpm for 2 hr at 25° C. Samples were then filtered through MultiScreen Solvinert filter plates (Millipore) via vacuum filtration. Aliquots of filtrate (5 μl) plus 5 μl DMSO were diluted in 490 μl 50% acetonitrile in water containing internal standard. The filtrate was analysed and quantified against a standard of known concentration using LC-MS/MS. Solubility values of the test compound and control compound were calculated as follows: [Sample]=(Area ratiosample*INJ VOL STD*DFsample*[STD])/(Area ratio STD*INJ VOLsample).

## O=C(/C=C/c1ccc2cn[nH]c2c1)Nc1ccccc1COc1ccccc1 [Example 17, (E)-3-(1H-indazol-6-yl)-N-(2-(phenoxymethyl)phenyl)acrylamide]
mPTP
  mPTP Rat liver pIC50*: 6.9

## O=C(/C=C/c1ccc2cn[nH]c2c1)Nc1ccccc1COC1CCC1 [Example 18, (E)-N-(2-(cyclobutoxymethyl)phenyl)-3-(1H-indazol-6-yl)acrylamide]
mPTP
  mPTP Rat liver pIC50*: 6.7

## O=C(/C=C/c1ccc2cn[nH]c2c1)N[C@@H]1C[C@H](F)c2ccccc21 (single isomer, unassigned) [Example 26]
mPTP
  mPTP Rat liver pIC50*: 6.2

## O=C(/C=C/c1ccc2cn[nH]c2c1)Nc1cccc(F)c1 [Example 23, (E)-N-(3-fluorophenyl)-3-(1H-indazol-6-yl)acrylamide]
mPTP
  mPTP Rat liver pIC50*: 5.9

## C[C@@H]1Cc2ccccc2[C@H]1NC(=O)/C=C/c1ccc2cn[nH]c2c1 (single isomer, unassigned) [Example 14d]
mPTP
  mPTP Rat liver pIC50*: 6.2

## Cc1cccc(F)c1NC(=O)/C=C/c1ccc2cn[nH]c2c1 [Example 33, (E)-N-(2-fluoro-6-methylphenyl)-3-(1H-indazol-6-yl)acrylamide]
mPTP
  mPTP Rat liver pIC50*: 7.0

## O=C(/C=C/c1ccc2cn[nH]c2c1)Nc1cccc(Cl)c1 [Example 22, (E)-N-(3-chlorophenyl)-3-(1H-indazol-6-yl)acrylamide]
mPTP
  mPTP Rat liver pIC50*: 6.4

## O=C(/C=C/c1ccc2cn[nH]c2c1)Nc1ccccc1OCc1ccccc1 [Example 16, (E)-N-(2-(benzyloxy)phenyl)-3-(1H-indazol-6-yl)acrylamide]
mPTP
  mPTP Rat liver pIC50*: 6.0

## Cc1cccc(NC(=O)/C=C/c2ccc3cn[nH]c3c2)c1 [Example 21, (E)-3-(1H-indazol-6-yl)-N-(m-tolyl)acrylamide]
mPTP
  mPTP Rat liver pIC50*: 6.5

## O=C(/C=C/c1cc2[nH]ncc2cn1)NC1CCc2ccccc21 (stereo not shown) [Example 35, (E)-N-(2,3-dihydro-1H-inden-1-yl)-3-(1H-pyrazolo[4,3-c]pyridin-6-yl)acrylamide]
mPTP
  mPTP Rat liver pIC50*: 5.7

## CC1COc2ccccc2C1NC(=O)/C=C/c1ccc2cn[nH]c2c1 (stereo not shown) [Example 15, (E)-3-(1H-indazol-6-yl)-N-(3-methylchroman-4-yl)acrylamide]
[1]
  hepatocyte CLint at 1 µM: 20 µL/min/1e6 cells
PBS solubility
  solubility at 2 h: 5.9 µM (≈ 1.97 µg/mL)
mPTP
  mPTP Rat liver pIC50*: 6.9

## CC1Cc2ccccc2C1NC(=O)/C=C/c1ccc2cn[nH]c2c1 (stereo not shown) [Example 14, (E)-3-(1H-indazol-6-yl)-N-(2-methyl-2,3-dihydro-1H-inden-1-yl)acrylamide]
mPTP
  mPTP Rat liver pIC50*: 7.3

## O=C(/C=C/c1ccc2cn[nH]c2c1)Nc1ccccc1COC1CN(CCF)C1 [Example 30, (E)-N-(2-(((1-(2-fluoroethyl)azetidin-3-yl)oxy)methyl)phenyl)-3-(1H-indazol-6-yl)acrylamide Hydrochloride]
mPTP
  mPTP Rat liver pIC50*: 5.8

## O=C(/C=C/c1cc2[nH]ncc2cc1Cl)NC1CCc2ccccc21 (stereo not shown) [Example 12, (E)-3-(5-chloro-1H-indazol-6-yl)-N-(2,3-dihydro-1H-inden-1-yl)acrylamide]
mPTP
  mPTP Rat liver pIC50*: 6.0

## O=C(/C=C/c1ccc2cn[nH]c2c1)N[C@@H]1C[C@@H](F)c2ccccc21 (single isomer, unassigned) [Example 25]
mPTP
  mPTP Rat liver pIC50*: 6.6

## Cc1cccc2c1C(NC(=O)/C=C/c1ccc3cn[nH]c3c1)CC2 (stereo not shown) [Example 38, (E)-3-(1H-indazol-6-yl)-N-(7-methyl-2,3-dihydro-1H-inden-1-yl)acrylamide]
mPTP
  mPTP Rat liver pIC50*: 5.0

## O=C(/C=C/c1cc2[nH]ncc2cc1F)NC1CCc2ccccc21 (stereo not shown) [Example 10, (E)-N-(2,3-dihydro-1H-inden-1-yl)-3-(5-fluoro-1H-indazol-6-yl)acrylamide]
[1]
  hepatocyte CLint at 1 µM: 60 µL/min/1e6 cells
mPTP
  mPTP Rat liver pIC50*: 7.6

## Cn1ncc2cccc(NC(=O)/C=C/c3ccc4cn[nH]c4c3)c21 [Example 20, (E)-3-(1H-indazol-6-yl)-N-(1-methyl-1H-indazol-7-yl)acrylamide]
[1]
  hepatocyte CLint at 1 µM: 10 µL/min/1e6 cells
PBS solubility
  solubility at 2 h: 1.3 µM (≈ 0.413 µg/mL)
mPTP
  mPTP Rat liver pIC50*: 7.5

## O=C(/C=C/c1ccc2cn[nH]c2c1)Nc1ccccc1CO [Example 27, (E)-N-(2-(hydroxymethyl)phenyl)-3-(1H-indazol-6-yl)acrylamide]
mPTP
  mPTP Rat liver pIC50*: 6.8

## C[C@@H]1CCCC[C@H]1NC(=O)/C=C/c1ccc2cn[nH]c2c1 (single isomer, unassigned) [Example 4a]
mPTP
  mPTP Rat liver pIC50*: 6.5

## O=C(/C=C/c1ccc2cn[nH]c2c1)Nc1cccc2cnn(Cc3ccccc3)c12 [Example 19, (E)-N-(1-benzyl-1H-indazol-7-yl)-3-(1H-indazol-6-yl)acrylamide]
[1]
  hepatocyte CLint at 1 µM: 179 µL/min/1e6 cells
PBS solubility
  solubility at 2 h: 0.08 µM (≈ 0.0315 µg/mL)
mPTP
  mPTP Rat liver pIC50*: 7.6

## C[C@@H]1CCCC[C@H]1NC(=O)/C=C/c1ccc2cn[nH]c2c1 (single isomer, unassigned) [Example 4b]
mPTP
  mPTP Rat liver pIC50*: 6.3

## C#CCOCc1ccccc1NC(=O)/C=C/c1ccc2cn[nH]c2c1 [Example 40, (E)-3-(1H-indazol-6-yl)-N-(2-((prop-2-yn-1-yloxy)methyl)phenyl)acrylamide]
mPTP
  mPTP Rat liver pIC50*: 7.1

## CC1CC(NC(=O)/C=C/c2ccc3cn[nH]c3c2)c2ccccc21 (stereo not shown) [Example 39, (E)-3-(1H-indazol-6-yl)-N-(3-methyl-2,3-dihydro-1H-inden-1-yl)acrylamide]
mPTP
  mPTP Rat liver pIC50*: 5.8
